In PMC9563556, “Antibacterial and anti-inflammatory properties of host defense peptides against Staphylococcus aureus” (iScience, 2022):
“Also recorded” adds a separate entry of the source.

Experiments:
[1] = tested on: Staphylococcus aureus strain SH1000; test: Peptides direct antibacterial properties, broth micro-dilution, growth by OD 600 nm; format: cell-based; details: for direct antibacterial effect on S. aureus growth: broth micro-dilution in THB, inoculum 5 x 10^5 CFU/mL, 37°C, OD 600 nm every 5 min for 12 h, concentration range of peptide
Experimental: All experiments used GFP-labelled Staphylococcus aureus strain SH1000, transformed with a GFP-expressing plasmid pCM29 to constitutively express GFP, as previously described ([Boero et al., 2021]). Bacteria were grown overnight in Todd-Hewitt broth (THB) with 10 μg/mL chloramphenicol to reach stationary phase.
Peptides were diluted at different concentrations in α-MEM supplemented with 10% FBS or in THB when testing their effects on macrophages or bacteria, respectively.
Peptides direct antibacterial properties were determined by broth micro-dilution method. Overnight bacterial suspension was diluted in THB to reach a final inoculum concentration of 5 x 10^5 colony-forming units per mL (CFU/mL). Bacterial suspension and peptides dilutions were mixed in equal parts in a flat-bottom 96-well plate in triplicates in a total volume of 200 μL, and incubated at 37°C. Bacterial growth was monitored by measuring OD (600nm) continuously every 5 minutes for 12 h in Clariostar plate reader (BMG labtech) with gentle shaking before each measurement.

[2] = tested on: primary human macrophages; test: LPS-induced TNF-α and IL-10 release of macrophages (ELISA); format: cell-based; details: for inhibition of macrophage LPS-mediated activation: 10 ng/mL LPS O111:B4, 24 h, TNF-α and IL-10 by ELISA
Experimental: Isolated monocytes were seeded in a 24-well plate at a density of 300,000 cells/well, except where otherwise stated. Monocytes were differentiated to macrophages by culture for 7 days in α-Minimum Essential Medium (α-MEM) supplemented with 10% (v/v) hyclone fetal bovine serum (hyFBS), 100 U/mL penicillin- streptomycin (1% p/s), and 40 ng/mL human recombinant M-CSF. Culture media was refreshed after 3-4 days.
Monocytes were seeded in a 96-well plate at a density of 150,000 cells/well. After 7 days differentiation, macrophages were incubated with fresh media containing a range of peptides concentrations alone or in combination with 10 ng/mL LPS O111:B4 from E. coli. After 24 h stimulation, the supernatant was collected to measure LDH levels or TNF-α and IL-10 by ELISA, according to the manufacturer’s instructions. Both LDH and ELISA assays were performed in three independent experiments with measurements in triplicate.

[3] = tested on: primary human macrophages; test: Macrophage phenotype markers CD80 / CD163 by flow cytometry; format: cell-based; details: 24 h, selected peptide concentrations alone or with LPS, n = 3
Experimental: After 7 days differentiation, macrophages were incubated with fresh media with LPS, IL-4, and optimal concentrations of peptides alone or in combination with LPS. After 24 h stimulation, macrophages were detached from the culture plate and processed for staining into a 96-well plate. All washing steps were performed with cold 0,1% (w/v) bovine serum albumin (BSA)/PBS and centrifugation at 5 min, 500 x g. A panel of surface molecules was selected, based on previous reports for human macrophage polarization ([Ambarus et al., 2012]). The staining solutions were prepared by diluting the following fluorochrome-conjugated antibodies in PBS with 0,1% BSA and 1% (v/v) heat-inactivated human serum: CD16 (1:50); CD80 (1:50); CD163 (1:50). As a negative control, staining solution without antibodies was used. Cells were incubated with staining solutions for 30 min on ice, in the dark. Markers expression was measured via flow cytometer (FACSVerse, BD) and data analyzed using FlowJo.

[4] = tested on: primary human macrophages infected with S. aureus; test: "peptides during infection" model, S. aureus phagocytosis by flow cytometry; format: cell-based
Experimental: (§1) To assess the peptides influence on macrophages antibacterial properties, three different infection models studying intracellular bacteria survival, as outlined in Figures 3A, 5A, and 5D, were adopted. In all models, selected concentrations of peptides were used: 65 μM IDR-1018; 10 μM CATH-2; 10 μM LL-37.
(§2) The first step concerned the “peptides during infection” model, where cells were washed twice before incubation with the peptides for 24 h and subsequently bacteria were directly added to the culture without any washing step. In a subsequent step we assessed the “peptides during differentiation”, where peptides were added to the differentiation media for the first 3 days and removed after the regular media change; cells were washed twice before infection. In the third step we tested “peptides with MSCs”, where macrophages were cultured in presence of MSCs and peptides for 24 h; before infection cells were washed twice. All washing steps, before or after infection, were performed using warm α-MEM.
(§3) In all three models described, the same S. aureus infection protocol was applied. An overnight bacterial culture was diluted in α-MEM to reach a final inoculum concentration of 1 x 10^7 CFU/mL, and opsonized in 5% human pooled serum (HPS) for 15 min at 37°C. Opsonized S. aureus was added to the culture at a multiplicity of infection (MOI) = 1, meaning 1 bacterium per eukaryotic cell. To synchronize bacterial uptake, plates were centrifuged for 5 min, 110 x g at RT, and then moved to the incubator at 37°C, 5% CO2 for additional 25 min or 24 h. To study intracellular bacterial survival, after 30 min the cells were washed twice and cultured in media supplemented with 100 μg/mL gentamicin and 20 μg/mL lysostaphin for 1 h. Afterwards, cells were washed twice and incubated in media with only 5 μg/mL gentamicin. This treatment allows only intracellular bacteria to survive, as both gentamicin and lysostaphin are unable to penetrate mammalian cell membranes within short time periods ([Hamza et al., 2013]; [Hamza and Li, 2014]).
(§4) Samples were analyzed by flow cytometry and CFU counting at 30 min and 24 h after infection. Cells for flow cytometry were detached from the culture plate using 1mM DPBS/EDTA in combination with gentle scraping. When macrophages were cultured together with MSCs, samples were first trypsinzed and then scraped in DPBS/EDTA if cells were still attached to the bottom of the culture plate. Cells were moved to a 96-well plate and fixed in paraformaldehyde 4% before analysis. Samples were measured with MACSquant VYB (Miltenyi Biotech) flow cytometer and data analyzed with FlowJo. […] Non-infected samples were used to set GFP fluorescence baseline and define the proportion of infected, GFP-positive cells.

[5] = tested on: primary human macrophages infected with S. aureus; test: Confocal imaging, manual counting of intracellular bacteria ("peptides during infection" model); format: cell-based; details: 30 min infection, 50 randomly chosen cells
Experimental: According to the “peptides during infection” model, after 30 min infection cells were harvested and fixed as described for flow cytometry analysis. Cells membranes were stained with 3 μg/mL Alexa Fluor 647-labelled Wheat Germ Agglutinin (WGA) for 10 min at RT, on a shaking plate. Then, samples were transferred to CELLview slide previously coated with poly-L-lysine, and imaged on a Leica TCS SP5 microscope with a HCX PL AP CS 63x/1.40-0.60 OIL objective (Leica Microsystems). For each condition, the number of intracellular bacteria was counted in 50 randomly chosen cells. Images were adjusted for publication using Image J Fiji.

[6] = tested on: primary human macrophages infected with S. aureus; test: "peptides during differentiation" model, S. aureus phagocytosis by flow cytometry; format: cell-based; details: for contribution to phagocytosis: peptides during monocyte differentiation, then infection
Experimental: as §1, §2, §3, §4

[7] = tested on: intracellular S. aureus in primary human macrophages; test: "peptides during infection" model, intracellular S. aureus by CFU counting; format: cell-based
Experimental: as §1, §2, §3
(§5) To quantify the numbers of intracellular bacteria, cells were lysed with Triton X 0,1% and then plated on Todd-Hewitt agar plates in serial dilutions. Plates were incubated overnight at 37°C after which colonies were counted.

[8] = tested on: intracellular S. aureus in primary human macrophages; test: "peptides during differentiation" model, intracellular S. aureus by CFU counting; format: cell-based; details: 30 min and 24 h, n = 6
Experimental: as §1, §2
as §3, with “This treatment allows only intracellular bacteria to survive, as both gentamicin and lysostaphin are unable to penetrate mammalian cell membranes within short time periods ([Hamza et al., 2013]; [Hamza and Li, 2014]).” left out
as §5

[9] = cited from earlier work; for binding to LPS: "silent killing" mechanism, ref Coorens et al., 2017b
Description: One may argue that the inhibition of LPS-mediated activation of macrophages was not caused by peptides’ direct interaction with the immune cells. It was shown via a mechanism named “silent killing” that CATH-2 and LL-37 bind LPS to inhibit macrophages receptors activation ([Coorens et al., 2017b]).

[10] = tested on: primary human macrophages; test: Human cytokine array G5 after LPS and peptide stimulation; format: cell-based; details: 24 h LPS and peptides, n = 2
Experimental: Qualitative expression of various cytokines and chemokines was measured in duplicate for selected conditions by human cytokine array G5, according to the manufacturer’s instructions.

[11] = tested on: primary human macrophages; details: ref Pena et al., 2013; cited from earlier work
Description: In addition to TNF-α and IL-10, the peptides affected the expression of several other cytokines involved in immune cells’ activation and recruitment at the inflammation site (Figure 2E).

[12] = peptides 24 h before and during infection, 65 μM IDR-1018, 10 μM CATH-2, 10 μM LL-37, MOI 1, 30 min, n = 9
[13] = peptides in differentiation medium for the first 3 days, MOI 1, 30 min, n = 6

Row | Substance | direct antibacterial effect on S. aureus growth ([1]; n = 3) | inhibition of macrophage LPS-mediated activation [2] | polarization of macrophages toward M1 (CD80) or M2 (CD163) phenotype [3] | bacterial load, geometric mean of GFP signal, 30 min [4, 12] | bacterial uptake by macrophages, manual counting of intracellular bacteria [5] | contribution to phagocytosis [6] | macrophage intracellular killing (CFU) [8] | binding to LPS [9] | effect on S. aureus surviving intracellularly (CFU), 30 min and 24 h ([7]; n = 9) | further results
1 | RFGRFLRKIRRFRPKVTITIQGSARF-NH2 [CATH-2, chicken cathelicidin host defense peptide, CPC Scientific] | had direct antibacterial properties | inhibited macrophage lipopolysaccharide-mediated activation | kept macrophages in an intermediate state | slightly reduced the bacterial load in macrophages | reduced the bacterial uptake by macrophages | lost its contribution to phagocytosis; also recorded: had no impact | had no impact | bind LPS |  | concentration arresting S. aureus growth, relative to that needed to inhibit macrophage LPS-mediated activation ([1]; THB, 12 h growth curve, compared with LPS inhibition assay): 10 times lower; number of S. aureus surviving intracellularly (CFU), 30 min ([7]; 10 μM CATH-2, 65 μM IDR-1018, 10 μM LL-37, n = 9): significantly reduced; number of S. aureus surviving intracellularly (CFU), 24 h ([7]; gentamicin and lysostaphin after 30 min, n = 9): not statistically significant; also recorded: comparable to the non-stimulated group
2 | LLGDFFRKSKEKIGKEFKRIVQRIKDFLRNLVPRTES [LL-37, human cathelicidin host defense peptide, InVivogen] | did not show antibacterial effects at any concentration tested | inhibited macrophage lipopolysaccharide-mediated activation | kept macrophages in an intermediate state |  | did not provide such effect | had no impact | had no impact | bind LPS | no effects were observed | expression of MIP-1β, RANTES and MCP-1,2,3 [10]: stronger inhibition of the LPS activation of macrophages
3 | VRLIVAVRIWRR-NH2 [IDR-1018, bovine-derived cathelicidin host defense peptide, CPC Scientific] | did not show antibacterial effects at any concentration tested | inhibited macrophage lipopolysaccharide-mediated activation |  | markedly decrease phagocytosis | reduced the bacterial uptake by macrophages |  | had no impact |  | no effects were observed | concentration from which the start of S. aureus exponential growth is delayed ([1]; THB, 12 h growth curve, OD 600 nm, n = 3): ≥ 65 µM; concentration required for inhibition of LPS-mediated activation, compared among peptides ([2]; 10 ng/mL LPS, 24 h, TNF-α and IL-10 ELISA): higher concentrations of IDR-1018 were required; fraction of infected cells (macrophages that phagocytosed at least 1 bacterial cell), 30 min [4, 12]: significantly reduced the number of infected cells; amount of phagocytosed S. aureus, 24 h ([4]; peptides during infection model, 24 h after infection, n = 9 (Figure S5)): reduced the amount of phagocytosed S. aureus; number of internalized bacteria (geometric mean of GFP signal), 30 min [6, 13]: significantly reduced; proportion of infected macrophages, 30 min [6, 13]: significantly reduced; polarization of macrophages toward M1 or M2 phenotype [11]: did not correlate with the polarization of macrophages toward a clear M1 or M2 phenotype; binding affinity to LPS ([9]; ref Wieczorek et al., 2010): did not show significant binding affinity to LPS
